The subject of experiment [1] is Hep 3B2. The experiment in a line: Cell cycle arrest in human Hep3B cells assessed as accumulation at G0/G1 phase at 2.5 uM after 24 hrs by propidium iodide staining based flow cytometry (reference value: 36.3 to 39.0%). The experiment is classed as functional. On the technique in general: Flow cytometry measures light scatter and fluorescence of single cells or particles in a stream.

Experiment [2] has as its system Hep 3B2. Nature of the experiment: Cell cycle arrest in human Hep3B cells assessed as accumulation at G0/G1 phase at 2.5 uM after 48 hrs by propidium iodide staining based flow cytometry (reference value: 39.7 to 40.4%). The experiment is classed as functional.
The subject of experiment [3] is Hep 3B2. The experiment in a line: Cell cycle arrest in human Hep3B cells assessed as accumulation at S phase at 2.5 uM after 48 hrs by propidium iodide staining based flow cytometry (reference value: 20.8 to 24%). The experiment is classed as functional.
Experiment [4] concerns Hep 3B2. The experiment in a line: Cell cycle arrest in human Hep3B cells assessed as accumulation at G2/M phase at 2.5 uM after 72 hrs by propidium iodide staining based flow cytometry (reference value: 28.7 to 32.3%). The format is functional.
For experiment [5], the system named is Hep 3B2. Nature of the experiment: Cell cycle arrest in human Hep3B cells assessed as accumulation at sub-G1 phase at 40 uM after 48 hrs by propidium iodide staining based flow cytometry (reference value: 1.5 to 6.5%). The format is functional.
Experiment [6] relates to Hep 3B2. Nature of the experiment: Cell cycle arrest in human Hep3B cells assessed as accumulation at sub-G1 phase at 40 uM after 72 hrs by propidium iodide staining based flow cytometry (reference value: 0.6 to 3.3%). The experiment is classed as functional.
Experiment [7] deals with Hep 3B2. The experiment in a line: Cell cycle arrest in human Hep3B cells assessed as accumulation at G0/G1 phase at 40 uM after 72 hrs by propidium iodide staining based flow cytometry (reference value: 41.6 to 46.2%). The format is functional.
Experiment [8] concerns Hep 3B2. The experiment in a line: Induction of autophagy in human Hep3B cells at 40 uM after 72 hrs by acridine orange staining based flow cytometry (reference value: 1.1 to 4%). The experiment is classed as functional.
The subject of experiment [9] is Hep 3B2. The experiment in a line: Induction of apoptosis in human Hep3B cells assessed as ratio of cleaved caspase-3 to beta actin level at 40 uM after 72 hrs in presence of curcumin by Western blot analysis. The format is functional.
Experiment [10] concerns Hep 3B2. The experiment in a line: Induction of autophagy in human Hep3B cells assessed as ratio of LC3-2 to beta actin level at 40 uM after 72 hrs in presence of curcumin by Western blot analysis. (In general: A western blot detects proteins with antibodies after separation by electrophoresis.)
Experiment [11] relates to Hep 3B2. The experiment in a line: Induction of autophagy in human Hep3B cells after 48 to 72 hrs by acridine orange staining based flow cytometry. The experiment is classed as functional, cell-based.
Experiment [12] concerns Hep 3B2. Nature of the experiment: Growth inhibition of human Hep3B cells at 2.5 uM after 48 hrs in presence of curcumin by MTT assay. The format is functional. In general terms: Tetrazolium assays rely on reduction of a dye to a coloured formazan, in cell work by metabolically active cells.
Experiment [13] has as its system Hep 3B2. Nature of the experiment: Growth inhibition of human Hep3B cells at 5 uM after 48 hrs in presence of curcumin by MTT assay. The experiment is classed as functional.
For experiment [14], the system named is Hep 3B2. Nature of the experiment: Growth inhibition of human Hep3B cells at 10 uM after 48 hrs in presence of curcumin by MTT assay. The format is functional.
Experiment [15] relates to Hep 3B2. Nature of the experiment: Cell cycle arrest in human Hep3B cells assessed as accumulation at sub-G1 phase at 10 uM after 48 hrs in presence of curcumin by propidium iodide staining based flow cytometry (reference value: 3.7 +/- 0.4%). The experiment is classed as functional.
Experiment [16] deals with Hep 3B2. Nature of the experiment: Cell cycle arrest in human Hep3B cells assessed as accumulation at G2/M phase at 10 uM after 48 hrs in presence of curcumin by propidium iodide staining based flow cytometry (reference value: 36.6 +/- 2.9%). The experiment is classed as functional.
The subject of experiment [17] is Hep 3B2. Nature of the experiment: Induction of apoptosis in human Hep3B cells assessed as ratio of cleaved caspase-3 to beta actin level at 10 uM after 48 hrs in presence of curcumin by Western blot analysis. The experiment is classed as functional.
For experiment [18], the system named is Hep 3B2. The experiment in a line: Induction of autophagy in human Hep3B cells assessed as ratio of LC3-2 to beta-actin level at 10 uM after 48 hrs in absence of curcumin by Western blot analysis. The experiment is classed as functional.
Experiment [19] has as its system Hep 3B2. The experiment in a line: Growth inhibition of human Hep3B cells at 20 uM up to 72 hrs by MTT assay. The format is functional, cell-based.
In experiment [20] the target is Glycogen synthase kinase-3 beta (Homo sapiens) (UniProt P49841). The experiment in a line: Inhibition of GSK3beta phosphorylation at Ser9 in human Hep3B cells assessed as ratio of phosphorylated GSK3beta to beta-actin level at 10 uM after 48 hrs by Western blot analysis. The experiment is classed as cell-based.
Experiment [21] concerns Hep 3B2. The experiment in a line: Up regulation of […] expression in human Hep3B cells at 1 uM after 6 to 24 hrs by L1000 expression profiling method relative to control. The format is functional.
In experiment [22] the test system is Hep 3B2. The experiment in a line: Up regulation of ARFIP2 expression in human Hep3B cells at 1 uM after 6 to 24 hrs by L1000 expression profiling method relative to control. The format is functional.
Experiment [23] concerns Hep 3B2. Nature of the experiment: Up regulation of OXA1L expression in human Hep3B cells at 1 uM after 6 to 24 hrs by L1000 expression profiling method relative to control. The experiment is classed as functional.
Experiment [24] deals with Hep 3B2. The experiment in a line: Down regulation of PAPD7 expression in human Hep3B cells at 1 uM after 6 to 24 hrs by L1000 expression profiling method relative to control. The format is functional.
In experiment [25] the test system is Hep 3B2. Nature of the experiment: Down regulation of PTPRK expression in human Hep3B cells at 1 uM after 6 to 24 hrs by L1000 expression profiling method relative to control. The format is functional.
Experiment [26] has as its system Hep 3B2. Nature of the experiment: Down regulation of UBE2J1 expression in human Hep3B cells at 1 uM after 6 to 24 hrs by L1000 expression profiling method relative to control. The format is functional.
The subject of experiment [27] is Hep 3B2. Nature of the experiment: Down regulation of EDN1 expression in human Hep3B cells at 1 uM after 6 to 24 hrs by L1000 expression profiling method relative to control. The experiment is classed as functional.
Experiment [28] has as its system Hep 3B2. Nature of the experiment: Down regulation of PLA2G4A expression in human Hep3B cells at 1 uM after 6 to 24 hrs by L1000 expression profiling method relative to control. The experiment is classed as functional.
The test system of experiment [29] is Hep 3B2. Nature of the experiment: Down regulation of PPOX expression in human Hep3B cells at 1 uM after 6 to 24 hrs by L1000 expression profiling method relative to control. The experiment is classed as functional.
Experiment [30] deals with Hep 3B2. The experiment in a line: Down regulation of PLEKHM1 expression in human Hep3B cells at 1 uM after 6 to 24 hrs by L1000 expression profiling method relative to control. The format is functional.
Experiment [31] has as its system Hep 3B2. The experiment in a line: Down regulation of PTPRC expression in human Hep3B cells at 1 uM after 6 to 24 hrs by L1000 expression profiling method relative to control. The experiment is classed as functional.
Experiment [32] concerns Hep 3B2. Nature of the experiment: Down regulation of GNA15 expression in human Hep3B cells at 1 uM after 6 to 24 hrs by L1000 expression profiling method relative to control. The experiment is classed as functional.
Experiment [33] relates to Hep 3B2. The experiment in a line: Down regulation of MMP2 expression in human Hep3B cells at 1 uM after 6 to 24 hrs by L1000 expression profiling method relative to control. The format is functional.
Experiment [34] relates to Hep 3B2. Nature of the experiment: Down regulation of SNX13 expression in human Hep3B cells at 1 uM after 6 to 24 hrs by L1000 expression profiling method relative to control. The format is functional.
Experiment [35] concerns Hep 3B2. Nature of the experiment: Down regulation of DNMT3A expression in human Hep3B cells at 1 uM after 6 to 24 hrs by L1000 expression profiling method relative to control. The format is functional.
Experiment [36] has as its system Hep 3B2. Nature of the experiment: Down regulation of EXT1 expression in human Hep3B cells at 1 uM after 6 to 24 hrs by L1000 expression profiling method relative to control. The experiment is classed as functional.
In experiment [37] the test system is Hep 3B2. The experiment in a line: Down regulation of GRB7 expression in human Hep3B cells at 1 uM after 6 to 24 hrs by L1000 expression profiling method relative to control. The format is functional.

Activity calls are given as the source filed them. The rule behind the calls is not given here.

Glycogen synthase kinase-3 beta (Homo sapiens), sequence (P49841 whole entry, looked up): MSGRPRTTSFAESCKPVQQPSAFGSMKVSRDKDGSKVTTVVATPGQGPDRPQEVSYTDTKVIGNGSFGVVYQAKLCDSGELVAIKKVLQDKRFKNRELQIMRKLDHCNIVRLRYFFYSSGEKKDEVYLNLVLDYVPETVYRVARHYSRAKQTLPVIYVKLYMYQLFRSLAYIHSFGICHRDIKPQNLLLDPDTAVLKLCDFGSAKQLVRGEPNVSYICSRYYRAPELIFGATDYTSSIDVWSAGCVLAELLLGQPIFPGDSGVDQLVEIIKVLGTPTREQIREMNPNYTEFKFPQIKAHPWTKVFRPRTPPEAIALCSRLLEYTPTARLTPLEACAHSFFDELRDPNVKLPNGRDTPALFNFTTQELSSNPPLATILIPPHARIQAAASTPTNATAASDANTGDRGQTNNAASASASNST

`COc1ccc(CNC(=O)Nc2ncc([N+](=O)[O-])s2)cc1`: the Activity in experiment [1] amounted to 36.8%; in experiment [2], 38.5%; in experiment [3] it was 23.2%; in experiment [4] it was 35.3%; in experiment [5] it was 8.9%; in experiment [6], 5.4%. For the same compound, the figures for the Activity in experiment [7] and in experiment [8] were 38.5% and 23.3%, respectively. Also, the Ratio in experiment [9] was determined as 1.1; in [10], 2.6.
In the case of `O=C1COc2ccccc2N1Cc1cn(CCC2OCCO2)nn1`, the Activity entry in experiment [11] was “Dose-dependent effect”; in [15] it was 21.6%; in experiment [16] it was 44.8%. The results for the CI in [12], in experiment [13] and in [14] were 0.96, 0.92 and 0.89, respectively. Moreover, the Ratio in experiment [17] stood at 1.4; in [18] it was 2.2; in [20], 0.7. Further, the “growth inhibition (GI)” value in experiment [19] was “Active”. In addition, the log2FC was 3.5557 in experiment [21]; 3.4502 in experiment [22]; 3.2193 in experiment [23]; -3.2796 in experiment [24]; -3.3276 in experiment [25]; -3.3451 in experiment [26]. The log2FC in experiment [27] was -3.5482; in experiment [28], -3.7476; in [29] it was -3.7552; in [30], -3.9025; in experiment [31], -3.9957; in experiment [32], -4.0259. In addition, the log2FC in [33] is reported as -4.0779; in experiment [34] it was -4.142; in experiment [35], -4.2565; in experiment [36], -4.2621; in experiment [37] it was -4.419.

The record behind these values is ChEMBL document CHEMBL4024707, “Using gene expression database to uncover biology functions of 1,4-disubstituted 1,2,3-triazole analogues synthesized via a copper (I)-catalyzed reaction” (Eur J Med Chem, 2017).
